From patent US11034672B1, “Tyrosine kinase inhibitor compositions, methods of making and methods of use” (Black Diamond Therapeutics, Inc., priority 2018, dated 2021)

Columns and labels:
[1] = target: T1, EGFR WT (Homo sapiens, UniProt P00533); test: Activity for inhibiting EGFR (Table A), EGFR WT; type: cell-based; conditions: read-out: EGFR WT, potency code (IC50)
[2] = target: T2, EGFR V3 (Homo sapiens, UniProt P00533, DELINS30-297G); test: Activity for inhibiting EGFR (Table A), EGFR V3 (EGFR-Viii); type: cell-based; conditions: read-out: EGFR V3, potency code (IC50)
T2 construct: expressed in transfected cells; host or cells: BaF3 (murine pro-B), retroviral pMXs-IRES-Blasticidin

[3] = target: T3, EGFR NPH (Homo sapiens, UniProt P00533, DUP771-773); test: Activity for inhibiting EGFR (Table A), EGFR NPH; type: cell-based; conditions: read-out: EGFR NPH, potency code (IC50)
T3 construct: expressed in transfected cells; host or cells: BaF3 (murine pro-B), retroviral pMXs-IRES-Blasticidin

[4] = target: T4, EGFR SVD (Homo sapiens, UniProt P00533, DUP768-770); test: Activity for inhibiting EGFR (Table A), EGFR SVD; type: cell-based; conditions: read-out: EGFR SVD, potency code (IC50)
T4 construct: expressed in transfected cells; host or cells: BaF3 (murine pro-B), retroviral pMXs-IRES-Blasticidin

[5] = target: T5, HER2 WT (Homo sapiens, UniProt P04626); test: Activity for inhibiting HER2 (Table B), HER2 WT; type: cell-based
[6] = target: T6, HER2 S310F (Homo sapiens, UniProt P04626, S310F); test: Activity for inhibiting HER2 (Table B), HER2 S310F; type: cell-based; conditions: read-out: HER2 S310F, potency code (IC50)
T6 construct: expressed in transfected cells; host or cells: BaF3 (murine pro-B)
Procedure: (§1) EC50 values were determined with the same application.

[7] = target: T7, HER2 YVMA (Homo sapiens, UniProt P04626, INS775YVMA); test: Activity for inhibiting HER2 (Table B), HER2 YVMA; type: cell-based; conditions: read-out: HER2 YVMA, potency code (IC50)
T7 construct: expressed in transfected cells; host or cells: BaF3 (murine pro-B)
Procedure: as §1

[8] = target: T1, EGFR WT; test: BaF3 cell proliferation assay, EGFR WT (Table A); type: cell-based; conditions: potency code, 3 days, CellTiterGlo, read-out: EGFR WT (Activity for Inhibiting EGFR)
Summary of the method: (§2)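 BaF3 cells were infected twice with retrovirus carrying the mutant (pMXs-IRES-Blasticidin, 8 μg/ml polybrene, spinoculation), then selected in 10 μg/ml blasticidin for one week. Resistant pools were then grown without IL-3 to select for IL-3-independent growth. EC50 values were derived from proliferation.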

[9] = target: T2, EGFR V3; test: BaF3 cell proliferation assay, EGFR V3 (Table A); type: cell-based; conditions: potency code, 3 days, CellTiterGlo, read-out: EGFR V3 (Activity for Inhibiting EGFR)
Summary of the method: as §2

[10] = target: T3, EGFR NPH; test: BaF3 cell proliferation assay, EGFR NPH (Table A); type: cell-based; conditions: potency code, 3 days, CellTiterGlo, read-out: EGFR NPH (Activity for Inhibiting EGFR)
Summary of the method: as §2

[11] = target: T4, EGFR SVD; test: BaF3 cell proliferation assay, EGFR SVD (Table A); type: cell-based; conditions: potency code, 3 days, CellTiterGlo, read-out: EGFR SVD (Activity for Inhibiting EGFR)
Summary of the method: as §2

[12] = target: T5, HER2 WT; test: BaF3 cell proliferation assay, HER2 WT (Table B); type: cell-based; conditions: potency code, 3 days, CellTiterGlo, read-out: HER2 WT (Activity for Inhibiting HER2)
[13] = target: T6, HER2 S310F; test: BaF3 cell proliferation assay, HER2 S310F (Table B); type: cell-based; conditions: potency code, 3 days, CellTiterGlo, read-out: HER2 S310F (Activity for Inhibiting HER2)
[14] = target: T7, HER2 YVMA; test: BaF3 cell proliferation assay, HER2 YVMA (Table B); type: cell-based; conditions: potency code, 3 days, CellTiterGlo, read-out: HER2 YVMA (Activity for Inhibiting HER2)
[15] = system: Her2 S310F BaF3 tumors; test: Tumor growth in athymic nude mice bearing Her2 S310F BaF3 tumors; type: in vivo; conditions: for Tumor response: FIG. 28
Procedure: Tumor size was measured for each dosing schedule, and analyzed to assess regression. […] The effect was further confirmed in the dose-dependent experiment.
A mouse tumor model containing mutant Her2 was used to test the ability of Compound No. 26 to inhibit tumor growth and induce tumor regression in vivo. Athymic nude mice from Charles River Labs bearing Her2 S310F BaF3 tumors were treated with Compound No. 26 either at 15 mg/kg once per day (QD), 7.5 mg/kg twice per day (BID), and 15 mg/kg twice per day (BID). Tumor size was measured for each dosing condition and analyzed to assess regression. […] The effect was further confirmed in mice dosed at 15 mg/kg once per day (QD), 7.5 mg/kg twice per day (BID), and 15 mg/kg twice per day (BID). In addition to assessing tumor size in these groups, plasma was collected from dosed individuals at 2 and 5 hours following each treatment. Compound No. 26 levels were measured in the plasma samples to determine pharmacokinetic profiles that may influence tumor response.
Tumor size was measured and analyzed to assess the effect on tumor growth and regression.
A mouse tumor model containing mutant Her2 was used to test the ability of Compound No. 6 to inhibit tumor growth and induce tumor regression in vivo. Athymic nude mice from Charles River Labs bearing Her2 S310F BaF3 tumors were treated with Compound No. 6 at 30 mg/kg once per day (QD) for 10 days. Tumor size was measured and analyzed to assess the effect on tumor growth and regression.

[16] = Table B, read-out: HER2 WT, potency code (IC50)
[17] = text lists of compounds, read-out: IC50 value for inhibiting wild-type HER2
[18] = 50 mg/kg once per day for 10 days

T5 sequence (P04626 23-1255): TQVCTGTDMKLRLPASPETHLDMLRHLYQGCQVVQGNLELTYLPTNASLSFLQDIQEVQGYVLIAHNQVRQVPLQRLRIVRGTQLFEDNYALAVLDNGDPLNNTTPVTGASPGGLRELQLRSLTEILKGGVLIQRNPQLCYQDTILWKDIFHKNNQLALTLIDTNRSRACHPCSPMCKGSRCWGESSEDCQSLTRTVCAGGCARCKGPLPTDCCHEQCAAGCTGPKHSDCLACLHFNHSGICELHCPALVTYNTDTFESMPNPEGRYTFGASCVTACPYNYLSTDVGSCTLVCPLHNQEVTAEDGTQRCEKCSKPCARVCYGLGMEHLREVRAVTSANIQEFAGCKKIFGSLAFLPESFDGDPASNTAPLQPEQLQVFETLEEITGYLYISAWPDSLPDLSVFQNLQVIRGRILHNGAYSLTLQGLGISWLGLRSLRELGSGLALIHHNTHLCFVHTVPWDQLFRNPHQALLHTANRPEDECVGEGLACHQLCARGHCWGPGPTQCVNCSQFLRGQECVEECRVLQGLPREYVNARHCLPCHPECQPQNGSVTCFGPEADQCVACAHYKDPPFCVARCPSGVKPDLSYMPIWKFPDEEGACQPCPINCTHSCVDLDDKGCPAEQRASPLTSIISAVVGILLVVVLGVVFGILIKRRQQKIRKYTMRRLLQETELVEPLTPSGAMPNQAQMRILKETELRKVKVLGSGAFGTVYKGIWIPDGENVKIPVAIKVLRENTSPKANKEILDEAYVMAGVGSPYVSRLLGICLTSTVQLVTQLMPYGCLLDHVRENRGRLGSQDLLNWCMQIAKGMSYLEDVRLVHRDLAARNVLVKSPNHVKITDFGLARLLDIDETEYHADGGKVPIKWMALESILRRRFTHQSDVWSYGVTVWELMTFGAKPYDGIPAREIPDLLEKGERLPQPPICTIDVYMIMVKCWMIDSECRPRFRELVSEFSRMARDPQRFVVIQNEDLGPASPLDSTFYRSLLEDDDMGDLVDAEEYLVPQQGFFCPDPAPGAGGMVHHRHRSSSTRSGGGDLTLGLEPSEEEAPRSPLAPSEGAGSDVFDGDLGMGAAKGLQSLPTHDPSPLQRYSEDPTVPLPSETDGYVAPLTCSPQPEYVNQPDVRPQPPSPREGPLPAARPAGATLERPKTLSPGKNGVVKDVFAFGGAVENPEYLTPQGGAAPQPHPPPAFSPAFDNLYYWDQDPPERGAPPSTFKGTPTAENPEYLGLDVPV
T7 sequence (P04626 with tags, fused parts or gaps INS775YVMA): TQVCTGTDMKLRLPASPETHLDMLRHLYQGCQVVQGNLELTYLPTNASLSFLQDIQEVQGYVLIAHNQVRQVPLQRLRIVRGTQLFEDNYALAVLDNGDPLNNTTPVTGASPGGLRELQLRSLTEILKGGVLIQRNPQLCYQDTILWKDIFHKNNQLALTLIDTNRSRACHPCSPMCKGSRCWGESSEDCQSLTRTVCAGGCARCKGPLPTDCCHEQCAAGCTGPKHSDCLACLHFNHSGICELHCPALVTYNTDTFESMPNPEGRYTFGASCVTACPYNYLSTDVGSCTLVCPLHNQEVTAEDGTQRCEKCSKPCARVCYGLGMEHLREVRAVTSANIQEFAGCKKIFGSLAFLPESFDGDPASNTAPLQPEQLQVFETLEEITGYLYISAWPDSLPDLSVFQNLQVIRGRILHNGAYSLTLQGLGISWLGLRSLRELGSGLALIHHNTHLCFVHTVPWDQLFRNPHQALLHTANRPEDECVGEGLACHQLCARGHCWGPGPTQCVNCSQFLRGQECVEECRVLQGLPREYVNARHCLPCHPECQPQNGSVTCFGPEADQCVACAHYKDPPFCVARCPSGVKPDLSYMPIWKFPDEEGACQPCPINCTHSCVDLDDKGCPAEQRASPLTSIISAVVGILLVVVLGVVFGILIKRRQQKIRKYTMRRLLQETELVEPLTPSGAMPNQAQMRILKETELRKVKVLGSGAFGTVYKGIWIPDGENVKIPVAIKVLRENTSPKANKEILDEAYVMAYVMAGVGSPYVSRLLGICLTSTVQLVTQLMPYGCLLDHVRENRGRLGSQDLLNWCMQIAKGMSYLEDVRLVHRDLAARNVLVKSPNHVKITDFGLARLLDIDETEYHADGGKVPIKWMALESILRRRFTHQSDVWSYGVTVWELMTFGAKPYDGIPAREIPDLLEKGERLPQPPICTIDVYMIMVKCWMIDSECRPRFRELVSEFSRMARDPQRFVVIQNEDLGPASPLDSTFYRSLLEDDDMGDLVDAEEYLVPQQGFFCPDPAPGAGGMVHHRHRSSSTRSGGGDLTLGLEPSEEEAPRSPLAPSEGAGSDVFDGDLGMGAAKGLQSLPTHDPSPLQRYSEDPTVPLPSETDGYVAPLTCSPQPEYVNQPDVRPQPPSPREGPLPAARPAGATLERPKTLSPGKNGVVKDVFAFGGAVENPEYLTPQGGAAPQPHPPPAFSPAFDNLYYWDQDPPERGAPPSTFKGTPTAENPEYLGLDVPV
T4 sequence (P00533 with tags, fused parts or gaps DUP768-770): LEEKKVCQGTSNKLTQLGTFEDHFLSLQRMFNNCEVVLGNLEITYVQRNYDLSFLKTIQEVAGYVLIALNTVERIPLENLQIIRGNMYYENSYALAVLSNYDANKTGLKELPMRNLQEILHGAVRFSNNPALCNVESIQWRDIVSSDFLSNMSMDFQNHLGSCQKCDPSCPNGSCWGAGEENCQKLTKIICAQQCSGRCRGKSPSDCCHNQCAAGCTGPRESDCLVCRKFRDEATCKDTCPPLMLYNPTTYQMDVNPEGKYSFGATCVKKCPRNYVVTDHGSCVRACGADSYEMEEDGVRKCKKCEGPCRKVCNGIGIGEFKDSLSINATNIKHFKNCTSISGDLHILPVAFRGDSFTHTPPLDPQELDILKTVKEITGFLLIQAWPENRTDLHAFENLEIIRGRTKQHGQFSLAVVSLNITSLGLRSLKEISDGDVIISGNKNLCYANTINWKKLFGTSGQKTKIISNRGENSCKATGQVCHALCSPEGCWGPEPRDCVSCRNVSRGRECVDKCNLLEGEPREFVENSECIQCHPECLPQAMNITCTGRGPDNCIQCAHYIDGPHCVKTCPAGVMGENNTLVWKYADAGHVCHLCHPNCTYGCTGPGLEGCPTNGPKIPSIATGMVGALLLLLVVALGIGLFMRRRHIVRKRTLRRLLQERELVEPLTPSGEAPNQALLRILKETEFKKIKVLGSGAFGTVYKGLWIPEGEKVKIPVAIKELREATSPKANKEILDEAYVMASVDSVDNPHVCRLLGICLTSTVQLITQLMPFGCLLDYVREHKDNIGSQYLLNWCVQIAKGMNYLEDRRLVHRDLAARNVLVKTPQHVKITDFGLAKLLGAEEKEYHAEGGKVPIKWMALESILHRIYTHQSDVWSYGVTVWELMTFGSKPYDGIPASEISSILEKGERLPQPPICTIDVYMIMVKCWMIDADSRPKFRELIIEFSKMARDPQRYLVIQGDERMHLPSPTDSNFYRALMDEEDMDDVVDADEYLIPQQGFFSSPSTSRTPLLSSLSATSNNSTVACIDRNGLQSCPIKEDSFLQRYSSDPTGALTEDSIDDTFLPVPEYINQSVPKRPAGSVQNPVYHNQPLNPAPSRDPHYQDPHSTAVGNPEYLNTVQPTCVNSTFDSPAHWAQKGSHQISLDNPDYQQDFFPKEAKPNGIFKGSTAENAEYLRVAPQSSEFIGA
T2 sequence (P00533 with tags, fused parts or gaps DELINS30-297G): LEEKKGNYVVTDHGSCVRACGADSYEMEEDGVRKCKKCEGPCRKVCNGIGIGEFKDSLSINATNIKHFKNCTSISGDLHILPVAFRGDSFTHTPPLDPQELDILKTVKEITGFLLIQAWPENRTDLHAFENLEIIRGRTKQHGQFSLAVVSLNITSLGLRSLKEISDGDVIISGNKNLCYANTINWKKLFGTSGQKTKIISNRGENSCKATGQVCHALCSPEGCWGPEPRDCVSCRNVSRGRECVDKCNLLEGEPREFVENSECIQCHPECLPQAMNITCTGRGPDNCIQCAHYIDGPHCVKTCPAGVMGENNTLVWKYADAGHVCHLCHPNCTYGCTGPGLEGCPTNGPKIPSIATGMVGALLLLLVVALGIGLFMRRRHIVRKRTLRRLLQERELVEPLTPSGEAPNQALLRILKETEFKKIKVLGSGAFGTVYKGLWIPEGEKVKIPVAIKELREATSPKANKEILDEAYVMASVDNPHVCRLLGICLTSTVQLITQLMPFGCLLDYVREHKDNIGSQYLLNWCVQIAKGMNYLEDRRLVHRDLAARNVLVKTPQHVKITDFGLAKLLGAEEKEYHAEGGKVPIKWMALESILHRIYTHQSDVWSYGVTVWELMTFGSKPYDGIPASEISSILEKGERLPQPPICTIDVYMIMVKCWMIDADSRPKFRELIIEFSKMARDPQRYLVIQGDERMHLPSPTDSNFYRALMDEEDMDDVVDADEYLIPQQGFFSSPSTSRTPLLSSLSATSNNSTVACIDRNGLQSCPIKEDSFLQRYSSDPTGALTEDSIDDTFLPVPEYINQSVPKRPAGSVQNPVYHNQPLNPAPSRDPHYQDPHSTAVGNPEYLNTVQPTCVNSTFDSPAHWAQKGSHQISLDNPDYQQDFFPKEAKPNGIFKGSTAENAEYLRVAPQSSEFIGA

Compound | IC50 [1] [µM] | IC50 [2] [µM] | IC50 [3] [µM] | IC50 [4] [µM] | IC50 [5, 16] [µM] | IC50 [5, 17] [µM] | IC50 [6] [µM] | IC50 [7] [µM] | IC50 [8] [µM] | IC50 [9] [µM] | IC50 [10] [µM] | IC50 [11] [µM] | IC50 [12] [µM] | IC50 [13] [µM] | IC50 [14] [µM] | Tumor volume [15, 18] | other results
CC#CC(=O)Nc1cc2c(Nc3ccc(OCc4ccccn4)c(Cl)c3)ncnc2cc1OCCN1CCOCC1 [compound 5] | 0.03 to 0.05 | 0.01 to 0.02 | 0.03 to 0.05 | 0.01 to 0.02 | < 0.005 | ≤ 0.005 | < 0.005 | 0.005 to 0.01 | 0.03 to 0.05 | 0.01 to 0.02 | 0.03 to 0.05 | 0.01 to 0.02 | < 0.005 | < 0.005 | 0.005 to 0.01 |  | 
C=CC(=O)Nc1cc2c(Nc3cc(Cl)c(OCc4cccc(F)c4)cc3F)ncnc2cc1OCCN1CCOCC1 [compound 6] | 0.2 to 0.3 | 0.02 to 0.03 |  |  | 0.005 to 0.01 | ≤ 0.01 | 0.01 to 0.02 | 0.05 to 0.1 | 0.2 to 0.3 | 0.02 to 0.03 |  |  | 0.005 to 0.01 | 0.01 to 0.02 | 0.05 to 0.1 |  | Tumor volume ([15]; 30 mg/kg once per day (QD) for 10 days, FIG. 30): decreased
C=CC(=O)Nc1cc2c(Nc3ccc(OCc4ccccn4)c(Cl)c3)ncnc2cc1OCCN1CCOCC1 [compound 8] | 0.3 to 0.5 | 0.02 to 0.03 | 0.03 to 0.05 | 0.02 to 0.03 | 0.005 to 0.01 | ≤ 0.01 | 0.01 to 0.02 | 0.05 to 0.1 | 0.3 to 0.5 | 0.02 to 0.03 | 0.03 to 0.05 | 0.02 to 0.03 | 0.005 to 0.01 | 0.01 to 0.02 | 0.05 to 0.1 | decreased | Tumor regression, dose-dependent experiment ([15]; 15 mg/kg to 100 mg/kg once per day (QD) for 10 days, FIG. 26 right panel): regressed in a Compound No. 8 dose-dependent manner
C=CC(=O)Nc1cc2c(Nc3ccc(OCc4ccccn4)c(Cl)c3)ncnc2cc1OCCCN1CCOCC1 [compound 21] | 0.5 to 1 | 0.02 to 0.03 | 0.01 to 0.02 | 0.01 to 0.02 | < 0.005 | ≤ 0.01 | 0.005 to 0.01 | 0.02 to 0.03 | 0.5 to 1 | 0.02 to 0.03 | 0.01 to 0.02 | 0.01 to 0.02 | < 0.005 | 0.005 to 0.01 | 0.02 to 0.03 | did not increase over the same timeframe and showed moderate reduction in volume | 
C=CC(=O)Nc1cc2c(Nc3ccc(OCc4ccccn4)c(Cl)c3)ncnc2cc1C#C[C@@H]1[C@H]2CN(C)C[C@@H]12 [compound 26] | 0.3 to 0.5 | 0.03 to 0.05 | 0.03 to 0.05 | 0.03 to 0.05 | 0.005 to 0.01 | ≤ 0.01 | 0.005 to 0.01 | 0.03 to 0.05 | 0.3 to 0.5 | 0.03 to 0.05 | 0.03 to 0.05 | 0.03 to 0.05 | 0.005 to 0.01 | 0.005 to 0.01 | 0.03 to 0.05 |  | Tumor response ([15]; 7.5 mg/kg twice per day (BID)): definite tumor growth inhibition properties; Tumor response ([15]; 15 mg/kg BID): definite tumor regressive properties; Tumor volume over the time course ([15]; 15 mg/kg QD, 7.5 mg/kg BID, 15 mg/kg BID, FIG. 27): did not increase; Tumor response ([15]; 15 mg/kg once per day (QD)): definite tumor growth inhibition properties
